The source made the active and inactive calls. No cut-off for these calls is given here.

The test system of one assay is MDA-MB-231. As to the kind of experiment: Growth inhibition of human MDA-MB-231 cells at 10 uM after 72 hrs by MTT assay. Type of assay: functional. Particulars: MDA-MB-231, 72 h.
A further assay concerns MCF7. As to the kind of experiment: Growth inhibition of human MCF7 cells at 10 uM after 72 hrs by MTT assay. Type of assay: functional. Particulars: MCF7, 72 h.
Assay [1] deals with HL-60. Description: Cytotoxicity against human mitoxantrone-resistant HL60 cells after 72 hrs. The note with it: HL-60, 72 h. Type of assay: functional, cell-based.
The test system of a further assay is Nucleic Acid. As to the kind of experiment: Binding affinity to poly(dAT)2 assessed as change in melting temperature at [compound]/[polynucleotide] ratio of 1 at pH 7.1. Type of assay: nucleic-acid assay.
For a further assay, the system named is Calf thymus DNA. As to the kind of experiment: Binding affinity to calf thymus DNA assessed as change in melting temperature at [compound]/[polynucleotide] ratio of 1. In kind it is nucleic-acid assay. The note with it: Bos taurus.
Assay [2] has as its system HL-60. Description: Cytotoxicity against human HL60 cells after 72 hrs. Type of assay: functional, cell-based. Particulars: HL-60, 72 h.
For assay [3], the target named is DNA topoisomerase 2-alpha (Homo sapiens) (UniProt P11388). As to the kind of experiment: Inhibition of human topoisomerase 2-mediated DNA cleavage.
Sequence of DNA topoisomerase 2-alpha (Homo sapiens) (P11388 whole entry): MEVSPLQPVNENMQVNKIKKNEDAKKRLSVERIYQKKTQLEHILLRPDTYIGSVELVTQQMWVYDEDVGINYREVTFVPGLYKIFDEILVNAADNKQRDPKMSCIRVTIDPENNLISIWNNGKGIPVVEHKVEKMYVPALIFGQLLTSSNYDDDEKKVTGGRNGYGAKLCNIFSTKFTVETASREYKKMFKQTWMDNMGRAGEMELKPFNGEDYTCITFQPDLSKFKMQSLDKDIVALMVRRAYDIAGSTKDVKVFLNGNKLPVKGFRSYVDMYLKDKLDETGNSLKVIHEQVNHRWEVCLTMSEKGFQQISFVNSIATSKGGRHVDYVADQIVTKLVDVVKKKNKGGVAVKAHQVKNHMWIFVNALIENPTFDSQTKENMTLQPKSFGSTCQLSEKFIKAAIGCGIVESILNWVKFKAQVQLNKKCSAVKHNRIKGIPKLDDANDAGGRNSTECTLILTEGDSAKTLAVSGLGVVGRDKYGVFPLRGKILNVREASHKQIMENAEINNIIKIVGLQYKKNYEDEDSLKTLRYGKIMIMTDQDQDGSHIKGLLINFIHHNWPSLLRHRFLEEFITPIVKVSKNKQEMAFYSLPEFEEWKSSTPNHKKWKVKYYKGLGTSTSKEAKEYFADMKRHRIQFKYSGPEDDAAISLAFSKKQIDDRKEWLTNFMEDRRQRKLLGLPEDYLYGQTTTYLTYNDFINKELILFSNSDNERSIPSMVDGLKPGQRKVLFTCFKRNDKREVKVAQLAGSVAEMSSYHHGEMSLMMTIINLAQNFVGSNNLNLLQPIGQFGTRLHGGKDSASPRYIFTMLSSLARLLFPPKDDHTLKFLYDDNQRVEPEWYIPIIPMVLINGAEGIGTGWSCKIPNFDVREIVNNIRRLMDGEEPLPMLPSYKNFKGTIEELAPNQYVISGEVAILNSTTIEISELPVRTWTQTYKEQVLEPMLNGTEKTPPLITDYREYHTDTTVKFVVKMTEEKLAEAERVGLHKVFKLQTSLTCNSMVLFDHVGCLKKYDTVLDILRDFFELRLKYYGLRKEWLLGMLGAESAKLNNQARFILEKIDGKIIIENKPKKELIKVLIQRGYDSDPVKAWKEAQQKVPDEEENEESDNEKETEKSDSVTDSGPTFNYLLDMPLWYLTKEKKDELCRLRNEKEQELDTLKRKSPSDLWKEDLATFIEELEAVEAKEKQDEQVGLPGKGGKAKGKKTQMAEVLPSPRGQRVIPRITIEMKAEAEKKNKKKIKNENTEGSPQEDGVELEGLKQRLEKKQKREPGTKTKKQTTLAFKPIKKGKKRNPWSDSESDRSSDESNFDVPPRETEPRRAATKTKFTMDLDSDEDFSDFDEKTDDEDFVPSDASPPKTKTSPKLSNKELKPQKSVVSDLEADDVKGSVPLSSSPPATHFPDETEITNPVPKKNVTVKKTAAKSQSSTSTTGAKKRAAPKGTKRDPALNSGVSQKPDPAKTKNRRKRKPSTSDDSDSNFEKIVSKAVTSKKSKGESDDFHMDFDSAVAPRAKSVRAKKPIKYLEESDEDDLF

`c1cc(-n2nnc3c4sc(C5=NCCN5)nc4ccc32)ccn1`: the inhibition at 10 µM with MDA-MB-231 is 56.4%; with MCF7, 51.1%.
For `N#Cc1nc2ccc3c(nnn3-c3ccc4ccccc4n3)c2s1` the same measures were 19.8% and 30.4%.
The matching figures for `Nc1ccc2[nH]c3c4ccccc4ncc3c2c1`: 85.7% and 73.5%.
`Cc1cc(-n2nnc3c4sc(C5=NCCN5)nc4ccc32)c2ccccc2n1`: the inhibition at 10 µM in the assay with MDA-MB-231 was 97.4%; in the assay with MCF7, 98.9%.
Regarding `c1ccc2nc(-n3nnc4c5sc(C6=NCCN6)nc5ccc43)ccc2c1`, the inhibition at 10 µM in the assay with MDA-MB-231 was 28.5%; in the assay on MCF7, 41.3%.
As for `CC(=O)Nc1ccc2c(c1)-c1cccc3nccc(c13)N2`, the IC50 with HL-60 [1] was 5.5 µM; with HL-60 [2], 4.6 µM. Also, the ΔTm was 24.5 °C in the assay on Nucleic Acid and 14.5 °C in the assay with Calf thymus DNA.
On to `Cc1cc(-n2nnc3c4sc(C#N)nc4ccc32)c2ccccc2n1`, for which the inhibition at 10 µM with MDA-MB-231 came out at 91.9%; in the assay on MCF7, 87.2%.
As for `N#Cc1nc2ccc3c(nnn3-c3ccnc4ccccc34)c2s1`, the values for the inhibition at 10 µM with MDA-MB-231 and in the assay on MCF7 were 32.4% and 34.9%, respectively.
The matching figures for `c1ccc2c(-n3nnc4c5sc(C6=NCCN6)nc5ccc43)ccnc2c1`: 97.3% and 95.6%.
On to `c1ccc2c(c1)ncc1c2[nH]c2ccc3ncsc3c21`, for which the figures for the IC50 in the assay with HL-60 [1] and in the assay on HL-60 [2] were 22.6 µM and 17.2 µM, respectively. The figures for the ΔTm in the assay with Nucleic Acid and in the assay with Calf thymus DNA were 12.7 °C and 7.2 °C, respectively.
Regarding `CC[C@@]1(O)C(=O)OCc2c1cc1n(c2=O)Cc2cc3ccccc3nc2-1`, in assay [3], the inhibition result is “inactive”.
With `N#Cc1nc2ccc3c(nnn3-c3ccncc3)c2s1`, the inhibition at 10 µM in the assay on MDA-MB-231 was 87.4%; in the assay with MCF7 it was 95.5%.

The values above are taken from ChEMBL document CHEMBL1154158, “Synthesis and antitumoral activity of novel thiazolobenzotriazole, thiazoloindolo[3,2-c]quinoline and quinolinoquinoline derivatives” (Eur J Med Chem, 2009).
